US20240409585A1, “MACROCYCLIC IMMUNOMODULATORS” (priority 2021, published 2024)
Numbered stars: 1 amine (or outer) side, 2 acyl side, 3 side chain; on linkers, the order of the positions; unused ones are H or OH. Bridge positions count the residues as written; N and C are the ends. Square brackets hold non-standard residues; d marks the D form. Peptide text beside a SMILES is read from it. * marks the point of attachment. ξ: configuration not given here. X29 = O=C([C@H](Cc1ccc(-c2cc(F)cc(F)c2)cc1)N[*:1])[*:2]; Phe(4-COOH) = N[C@@H](Cc1ccc(C(=O)O)cc1)C(=O)O; Bip = N[C@@H](Cc1ccc(-c2ccccc2)cc1)C(=O)O; Phe(3-OMe) = COc1cccc(C[C@H](N)C(=O)O)c1; Phe(3-F) = N[C@@H](Cc1cccc(F)c1)C(=O)O; Phe(3-Me) = Cc1cccc(C[C@H](N)C(=O)O)c1; Val(3-OH) = CC(C)(O)[C@H](N)C(=O)O; ξPhe(2-Me) = Cc1ccccc1CC(N)C(=O)O; hArg = N=C(N)NCCCC[C@H](N)C(=O)O; 4Pal = N[C@@H](Cc1ccncc1)C(=O)O; 2Thi = N[C@@H](Cc1cccs1)C(=O)O; Cha = N[C@@H](CC1CCCCC1)C(=O)O; Cit = NC(=O)NCCC[C@H](N)C(=O)O; Ile(3ξ) = CCC(C)[C@H](N)C(=O)O; dPhg = N[C@@H](C(=O)O)c1ccccc1; Thr(3ξ) = CC(O)[C@H](N)C(=O)O; Carboxymethyl = O=C(O)C*; NMeA = CN[C@@H](C)C(=O)O; Orn = NCCC[C@H](N)C(=O)O; Dab = NCC[C@H](N)C(=O)O; Dap = NC[C@H](N)C(=O)O; Aib = CC(C)(N)C(=O)O

target: T1, PE-labeled human PD-L1-Ig binding to Jurkat cell line over-expressing human PD-1 (Jurkat-PD-1) (Homo sapiens, UniProt Q15116); experiment: Jurkat-PD-1 Cell Binding High-Content Screening Assay (CBA): Method 1; details: Jurkat-hPD-1 cells, PE-labeled PD-L1-Ig 20 nM final; read-out: Jurkat HPDL1 PD1 IC50 (uM) (Method 1)
T1 construct: expressed in transfected cells; host or cells: Jurkat
T1 sequence (Q15116 25-288): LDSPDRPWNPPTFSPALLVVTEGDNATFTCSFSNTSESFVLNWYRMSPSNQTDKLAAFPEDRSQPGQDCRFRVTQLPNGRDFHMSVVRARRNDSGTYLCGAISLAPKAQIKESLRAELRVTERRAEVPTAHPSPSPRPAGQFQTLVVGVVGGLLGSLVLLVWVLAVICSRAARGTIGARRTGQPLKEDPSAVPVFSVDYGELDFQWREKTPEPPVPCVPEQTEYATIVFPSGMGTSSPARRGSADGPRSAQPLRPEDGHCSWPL

SMILES | IC50
Cc1cccc(C[C@@H]2NC(=O)[C@H](CC(=O)O)NC(=O)[C@H](Cc3ccc(OCC(=O)O)cc3)NC(=O)[C@H]([C@@H](C)O)NC(=O)CSC[C@@H](C(N)=O)NC(=O)[C@H](CC(=O)O)NC(=O)[C@H](C(C)C)NC(=O)[C@H](CC3CCCCC3)NC(=O)[C@H](CC(N)=O)NC(=O)[C@@H](CC(C)C)NC(=O)[C@H](C)N(C)C(=O)[C@H](Cc3ccc(OCC(=O)O)cc3)NC(=O)[C@H](Cc3ccc(-c4ccccc4)cc3)NC(=O)[C@H](Cc3ccc(OCC(=O)O)cc3)NC2=O)c1 [Compound 1676] ({CH2CO}-TY(Carboxymethyl)D[Phe(3-Me)]Y(Carboxymethyl)[Bip]Y(Carboxymethyl)[NMeA][dL]N[Cha]VDC-NH2; thioether N-14) | 0.24 µM
CC(C)C[C@@H]1NC(=O)[C@H](CCCNC(=N)N)NC(=O)[C@@H](C)NC(=O)[C@H](C)N(C)C(=O)[C@H](C(C)C)NC(=O)[C@H](Cc2ccc(-c3ccccc3)cc2)NC(=O)[C@H](C(C)C)NC(=O)[C@H](Cc2c[nH]c3ccccc23)NC(=O)[C@H](CC(=O)O)NC(=O)[C@H](Cc2ccc(O)cc2)NC(=O)[C@H](Cc2ccccc2)NC(=O)CSC[C@@H](C(=O)N[C@@H](C)C(N)=O)NC(=O)[C@H](CO)NC(=O)[C@H](C(C)C)NC1=O [Compound 1779] ({CH2CO}-FYDWV[Bip]V[NMeA][dA]RLVSCA-NH2; thioether N-14) | 0.07 µM
CCC(C)[C@@H]1NC(=O)[C@H](Cc2ccc(-c3ccccc3)cc2)NC(=O)[C@H](C(C)C)NC(=O)[C@H](Cc2c[nH]c3ccccc23)NC(=O)[C@H](CC(=O)O)NC(=O)[C@H](Cc2ccc(O)cc2)NC(=O)[C@H](Cc2cccs2)NC(=O)CSC[C@@H](C(=O)N[C@@H](CCCNC(=N)N)C(N)=O)NC(=O)[C@H](C(C)O)NC(=O)[C@H](C(C)(C)O)NC(=O)[C@H](CC2CCCCC2)NC(=O)[C@H](CC(N)=O)NC(=O)[C@@H](CC(C)C)NC(=O)[C@H](C)N(C)C1=O (stereo partly drawn) [Compound 2172] ({CH2CO}-[2Thi]YDWV[Bip][Ile(3ξ)][NMeA][dL]N[Cha][Val(3-OH)][Thr(3ξ)]CR-NH2; thioether N-14) | 0.08 µM
Cc1ccccc1CC1NC(=O)[C@H](C)N(C)C(=O)[C@H](CCCNC(=N)N)NC(=O)[C@H](Cc2ccc(-c3ccccc3)cc2)NC(=O)[C@H](C(C)C)NC(=O)[C@H](Cc2c[nH]c3ccccc23)NC(=O)[C@H](CC(=O)O)NC(=O)[C@H](Cc2ccc(O)cc2)NC(=O)[C@H](Cc2ccccc2)NC(=O)CSC[C@@H](C(=O)N[C@@H](C)C(N)=O)NC(=O)[C@H]([C@@H](C)O)NC(=O)[C@H](C(C)C)NC(=O)[C@H](CC(C)C)NC(=O)[C@H](CCCNC(=N)N)NC1=O (stereo partly drawn) [Compound 1065] ({CH2CO}-FYDWV[Bip]R[NMeA][ξPhe(2-Me)]RLVTCA-NH2; thioether N-14) | 0.11 µM
Cc1cccc(C[C@@H]2NC(=O)[C@H](CC(=O)O)NC(=O)[C@H](Cc3ccc(OCC(=O)O)cc3)NC(=O)[C@H](C(C)O)NC(=O)CSC[C@@H](C(=O)N[C@@H](CCN)C(N)=O)NC(=O)[C@H](C(C)O)NC(=O)[C@H](C(C)(C)O)NC(=O)[C@H](CC3CCCCC3)NC(=O)[C@H](CCN)NC(=O)[C@@H](CC(C)C)NC(=O)[C@H](C)N(C)C(=O)[C@H](Cc3ccc(OCC(=O)O)cc3)NC(=O)[C@H](Cc3ccc(-c4ccccc4)cc3)NC(=O)[C@H](Cc3ccc(C(=O)O)cc3)NC2=O)c1 (stereo partly drawn) [Compound 2148] ({CH2CO}-[Thr(3ξ)]Y(Carboxymethyl)D[Phe(3-Me)][Phe(4-COOH)][Bip]Y(Carboxymethyl)[NMeA][dL][Dab][Cha][Val(3-OH)][Thr(3ξ)]C[Dab]-NH2; thioether N-14) | 0.01 µM
COc1cccc(C[C@@H]2NC(=O)[C@H](CN)NC(=O)CSC[C@@H](C(=O)N[C@@H](C)C(N)=O)NC(=O)[C@H]([C@@H](C)O)NC(=O)[C@H](C(C)C)NC(=O)[C@H](CC(C)C)NC(=O)[C@H](CCN)NC(=O)[C@@H](CC(C)C)NC(=O)[C@H](C)N(C)C(=O)[C@H](C(C)C)NC(=O)[C@H](Cc3ccc(-c4ccccc4)cc3)NC(=O)[C@H](C(C)C)NC(=O)[C@H](Cc3c[nH]c4ccccc34)NC(=O)[C@H](CC(=O)O)NC2=O)c1 [Compound 1427] ({CH2CO}-[Dap][Phe(3-OMe)]DWV[Bip]V[NMeA][dL][Dab]LVTCA-NH2; thioether N-14) | 0.11 µM
CC(C)C[C@@H]1NC(=O)[C@H](CCCNC(=N)N)NC(=O)C(C)(C)NC(=O)[C@H](C)N(C)C(=O)[C@H](CCCNC(=N)N)NC(=O)[C@H](Cc2ccc(-c3ccccc3)cc2)NC(=O)[C@H](C(C)C)NC(=O)[C@H](Cc2c[nH]c3ccccc23)NC(=O)[C@H](CC(=O)O)NC(=O)[C@H](Cc2ccc(O)cc2)NC(=O)[C@H](Cc2ccccc2)NC(=O)CSC[C@@H](C(=O)NCC(N)=O)NC(=O)[C@H](CO)NC(=O)[C@H](C(C)C)NC1=O [Compound 1013] ({CH2CO}-FYDWV[Bip]R[NMeA][Aib]RLVSCG-NH2; thioether N-14) | 0.16 µM
CC(C)C[C@@H]1NC(=O)[C@H](CCN)NC(=O)[C@@H](CC(C)C)NC(=O)[C@H](C)N(C)C(=O)[C@H](CCCNC(=N)N)NC(=O)[C@H](Cc2ccc(-c3ccccc3)cc2)NC(=O)[C@H](C(C)C)NC(=O)[C@H](Cc2c[nH]c3ccccc23)NC(=O)[C@H](CC(=O)O)NC(=O)[C@H](Cc2ccncc2)NC(=O)[C@H](CC(N)=O)NC(=O)CSC[C@@H](C(=O)N[C@@H](C)C(N)=O)NC(=O)[C@H]([C@@H](C)O)NC(=O)[C@H](C(C)C)NC1=O [Compound 1146] ({CH2CO}-N[4Pal]DWV[Bip]R[NMeA][dL][Dab]LVTCA-NH2; thioether N-14) | 0.06 µM
CC(C)C[C@@H]1NC(=O)[C@H](CCCNC(=N)N)NC(=O)[C@@H](c2ccccc2)NC(=O)[C@H](C)N(C)C(=O)[C@H](CCCNC(=N)N)NC(=O)[C@H](Cc2ccc(-c3ccccc3)cc2)NC(=O)[C@H](C(C)C)NC(=O)[C@H](Cc2c[nH]c3ccccc23)NC(=O)[C@H](CC(=O)O)NC(=O)[C@H](Cc2ccc(O)cc2)NC(=O)[C@H](Cc2ccccc2)NC(=O)CSC[C@@H](C(=O)N[C@@H](C)C(N)=O)NC(=O)[C@H]([C@@H](C)O)NC(=O)[C@H](C(C)C)NC1=O [Compound 1059] ({CH2CO}-FYDWV[Bip]R[NMeA][dPhg]RLVTCA-NH2; thioether N-14) | 0.21 µM
CC(C)C[C@@H]1NC(=O)[C@H](CCN)NC(=O)[C@@H](CC(C)C)NC(=O)[C@H](C)N(C)C(=O)[C@H](CCCNC(N)=O)NC(=O)[C@H](Cc2ccc(-c3ccccc3)cc2)NC(=O)[C@H](C(C)C)NC(=O)[C@H](Cc2c[nH]c3ccccc23)NC(=O)[C@H](CC(=O)O)NC(=O)[C@H](Cc2cccc(F)c2)NC(=O)[C@H](CC(N)=O)NC(=O)CSC[C@@H](C(=O)N[C@@H](C)C(N)=O)NC(=O)[C@H]([C@@H](C)O)NC(=O)[C@H](C(C)C)NC1=O [Compound 1315] ({CH2CO}-N[Phe(3-F)]DWV[Bip][Cit][NMeA][dL][Dab]LVTCA-NH2; thioether N-14) | 0.06 µM

More lines, in order of falling IC50, values ahead:

IC50 | SMILES
0.26 µM | CC(C)C[C@@H]1NC(=O)[C@H](CCN)NC(=O)[C@@H](CC(C)C)NC(=O)[C@H](C)N(C)C(=O)[C@H](CCCNC(=N)N)NC(=O)[C@H](Cc2ccc(-c3cc(F)cc(F)c3)cc2)NC(=O)[C@H](C(C)C)NC(=O)[C@H](Cc2c[nH]c3ccccc23)NC(=O)[C@H](CC(=O)O)NC(=O)[C@H](Cc2ccc(O)cc2)NC(=O)[C@H](CC(N)=O)NC(=O)CSC[C@@H](C(=O)N[C@@H](C)C(N)=O)NC(=O)[C@H]([C@@H](C)O)NC(=O)[C@H](C(C)C)NC1=O [Compound 1220] ({CH2CO}-NYDWV[X29]R[NMeA][dL][Dab]LVTCA-NH2; thioether N-14)
0.15 µM | CC(C)C[C@@H]1NC(=O)[C@H](CCCN)NC(=O)[C@@H](CC(C)C)NC(=O)[C@H](C)N(C)C(=O)[C@H](CCCNC(=N)N)NC(=O)[C@H](Cc2ccc(-c3ccccc3)cc2)NC(=O)[C@H](C(C)C)NC(=O)[C@H](Cc2c[nH]c3ccccc23)NC(=O)[C@H](CC(=O)O)NC(=O)[C@H](Cc2ccc(O)cc2)NC(=O)[C@H](CC(N)=O)NC(=O)CSC[C@@H](C(=O)N[C@@H](CCC(=O)O)C(N)=O)NC(=O)[C@H]([C@@H](C)O)NC(=O)[C@H](C(C)C)NC1=O [Compound 1165] ({CH2CO}-NYDWV[Bip]R[NMeA][dL][Orn]LVTCE-NH2; thioether N-14)
0.08 µM | CC(C)C[C@@H]1NC(=O)[C@H](CCN)NC(=O)[C@@H](CC(C)C)NC(=O)[C@H](C)N(C)C(=O)[C@H](CO)NC(=O)[C@H](Cc2ccc(-c3ccccc3)cc2)NC(=O)[C@H](C(C)C)NC(=O)[C@H](Cc2c[nH]c3ccccc23)NC(=O)[C@H](CC(=O)O)NC(=O)[C@H](Cc2ccc(O)cc2)NC(=O)[C@H](CC(N)=O)NC(=O)CSC[C@@H](C(=O)N[C@@H](C)C(N)=O)NC(=O)[C@H]([C@@H](C)O)NC(=O)[C@H](C(C)C)NC1=O [Compound 1261] ({CH2CO}-NYDWV[Bip]S[NMeA][dL][Dab]LVTCA-NH2; thioether N-14)
0.02 µM | CC(C)C[C@H]1NC(=O)[C@H](C)N(C)C(=O)[C@H](CCC(=O)O)NC(=O)[C@H](Cc2ccc(-c3ccccc3)cc2)NC(=O)[C@H](C(C)C)NC(=O)[C@H](Cc2c[nH]c3ccccc23)NC(=O)[C@H](CC(=O)O)NC(=O)[C@H](Cc2ccc(O)cc2)NC(=O)[C@H](CCCCNC(=N)N)NC(=O)CSC[C@@H](C(=O)NCC(N)=O)NC(=O)[C@H](C(C)O)NC(=O)[C@H](C(C)C)NC(=O)[C@H](CC2CCCCC2)NC(=O)[C@H](CCN)NC1=O (stereo partly drawn) [Compound 2094] ({CH2CO}-[hArg]YDWV[Bip]E[NMeA][dL][Dab][Cha]V[Thr(3ξ)]CG-NH2; thioether N-14)
0.01 µM | CC(=O)NCCCC[C@@H]1NC(=O)[C@H](C(C)C)NC(=O)[C@H](CC2CCCCC2)NC(=O)[C@H](CCN)NC(=O)[C@@H](CC(C)C)NC(=O)[C@H](C)N(C)C(=O)[C@H](CCC(N)=O)NC(=O)[C@H](Cc2ccc(-c3ccccc3)cc2)NC(=O)[C@H](C(C)C)NC(=O)[C@H](Cc2cccc(C)c2)NC(=O)[C@H](CC(=O)O)NC(=O)[C@H](Cc2ccc(OCC(=O)O)cc2)NC(=O)[C@H](Cc2ccc(OCC(=O)O)cc2)NC(=O)CSC[C@@H](C(=O)N[C@@H](CCN)C(N)=O)NC1=O [Compound 2129] ({CH2CO}-Y(Carboxymethyl)Y(Carboxymethyl)D[Phe(3-Me)]V[Bip]Q[NMeA][dL][Dab][Cha]VK(Ac)C[Dab]-NH2; thioether N-14)
